Source: patent US7767659B2, “Synthesis of naturally occurring ecteinascidins and related compounds” (Pharma Mar, S.A., priority 2002, dated 2010)

Assays:
[1] = system: LoVo; assay: cells; details: Homo sapiens, LoVo, 48 h; for GI50: read-out: LOVO GI50; for CC50: read-out: LOVO LC50; for IC (TGI): read-out: LOVO TGI
Method in brief: (§1)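 Colorimetric SRB read (490 nm) on triplicate wells after 48 h at 37 °C, 5% CO2. Dose range 10 to 10^−8 μg/ml; 5×10^3 cells/well pre-attached 18 h.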

[2] = system: A-549; assay: cells; details: Homo sapiens, A549, 48 h; for GI50: read-out: GI50 A549; for CC50: read-out: LC50 A549; for IC (TGI): read-out: TGI A549
Method in brief: as §1

[3] = system: HT-29; assay: cells; details: Homo sapiens, HT-29, 48 h; for GI50: read-out: GI50 HT29; for CC50: read-out: LC50 HT29; for IC (TGI): read-out: TGI HT29
Method in brief: as §1

[4] = system: K-562; assay: Inhibition of cells growth by colorimetric assay (SRB); details: Homo sapiens, K562, 48 h; for GI50: read-out: K562 GI50; for CC50: read-out: K562 LC50; for IC (TGI): read-out: K562 TGI
Method in brief: as §1

[5] = system: IGROV-ET; assay: as above; details: Homo sapiens, 48 h; for GI50: read-out: IGROV-ET GI50; for CC50: read-out: IGROV-ET LC50; for IC (TGI): read-out: IGROV-ET TGI
Method in brief: as §1

[6] = system: HeLa; assay: as above; details: Homo sapiens, HeLa, 48 h; for GI50: read-out: HELA GI50; for CC50: read-out: HELA LC50; for IC (TGI): read-out: HELA TGI
Method in brief: as §1

[7] = system: LoVo-Dox; assay: as above; details: Homo sapiens, 48 h; for GI50: read-out: LOVO-DOX GI50; for CC50: read-out: LOVO-DOX LC50; for IC (TGI): read-out: LOVO-DOX TGI
Method in brief: as §1

[8] = system: HeLa-APL; assay: as above; details: Homo sapiens, 48 h; for GI50: read-out: HELA-APL GI50; for CC50: read-out: HELA-APL LC50; for IC (TGI): read-out: HELA-APL TGI
Method in brief: as §1

[9] = system: SK-BR-3; assay: as above; details: Homo sapiens, SK-BR-3, 48 h; for GI50: read-out: SK-BR3 GI50; for CC50: read-out: SK-BR3 LC50; for IC (TGI): read-out: SK-BR3 TGI
Method in brief: as §1

[10] = system: LNCaP; assay: as above; details: Homo sapiens, LNCaP, 48 h; for GI50: read-out: GI50 LNCAP; for CC50: read-out: LC50 LNCAP; for IC (TGI): read-out: TGI LNCAP
Method in brief: as §1

[11] = system: PANC-1; assay: as above; details: Homo sapiens, PANC-1, 48 h; for GI50: read-out: PANC-1 GI50; for CC50: read-out: PANC-1 LC50; for IC (TGI): read-out: PANC-1 TGI
Method in brief: as §1

[12] = system: SK-MEL-28; assay: as above; details: Homo sapiens, SK-MEL-28, 48 h; for GI50: read-out: GI50 MEL-28; for CC50: read-out: LC50 MEL-28; for IC (TGI): read-out: TGI MEL-28
Method in brief: as §1

[13] = system: IGROV-1; assay: as above; details: Homo sapiens, IGROV-1, 48 h; for GI50: read-out: IGROV GI50; for CC50: read-out: IGROV LC50; for IC (TGI): read-out: IGROV TGI
Method in brief: as §1

[14] = system: DU-145; assay: as above; details: Homo sapiens, DU-145, 48 h; for GI50: read-out: GI50 DU145; for CC50: read-out: LC50 DU145; for IC (TGI): read-out: TGI DU145
Method in brief: as §1

COc1c(C)cc2c(c1O)[C@H]1N[C@@H](C2)[C@H](O)N2C1[C@@H]1SCC(NC(C)=O)C(=O)OC[C@H]2c2c3c(c(C)c(OC(C)=O)c21)OCO3 (stereo partly drawn) [compound 36]
GI50 [1]: 2.12 nM | CC50 [1]: 15.6 nM | IC (TGI) [1]: 5.91 nM | GI50 [2]: 5.56 nM | CC50 [2]: 83.8 nM | IC (TGI) [2]: 22.9 nM | GI50 [3]: 2.73 nM | CC50 [3]: 15600 nM | IC (TGI) [3]: 11.7 nM | GI50 [4]: 0.246 nM | CC50 [4]: 5.11 nM | IC (TGI) [4]: 0.7 nM | GI50 [5]: 27.7 nM | CC50 [5]: 15600 nM | IC (TGI) [5]: 71.7 nM | GI50 [6]: 1.46 nM | CC50 [6]: 9.82 nM | IC (TGI) [6]: 3.85 nM | GI50 [7]: 246 nM | CC50 [7]: 15600 nM | IC (TGI) [7]: 1090 nM | GI50 [8]: 1.85 nM | CC50 [8]: 10 nM | IC (TGI) [8]: 4.3 nM | GI50 [9]: 2.87 nM | CC50 [9]: 15.4 nM | IC (TGI) [9]: 6.65 nM | GI50 [10]: 0.46 nM | CC50 [10]: 5.06 nM | IC (TGI) [10]: 1.37 nM | GI50 [11]: 2.82 nM | CC50 [11]: 2600 nM | IC (TGI) [11]: 9.72 nM | GI50 [12]: 1.84 nM | CC50 [12]: 8.71 nM | IC (TGI) [12]: 4.01 nM | GI50 [13]: 1.12 nM | CC50 [13]: 10.4 nM | IC (TGI) [13]: 3.79 nM | GI50 [14]: 3.58 nM | CC50 [14]: 10400 nM | IC (TGI) [14]: 9.55 nM

CCCCCCCCCCCCCCCC(=O)NC1CS[C@@H]2c3c(OC(C)=O)c(C)c4c(c3[C@H](COC1=O)N1C2[C@@H]2N[C@@H](Cc3cc(C)c(OC)c(O)c32)[C@@H]1O)OCO4 (stereo partly drawn) [compound 38]
GI50 [1]: 358 nM | CC50 [1]: 2510 nM | IC (TGI) [1]: 793 nM | GI50 [2]: 473 nM | CC50 [2]: 4710 nM | IC (TGI) [2]: 1420 nM | GI50 [3]: 653 nM | CC50 [3]: 4730 nM | IC (TGI) [3]: 1670 nM | GI50 [4]: 193 nM | CC50 [4]: 1540 nM | IC (TGI) [4]: 510 nM | GI50 [5]: 365 nM | CC50 [5]: 1480 nM | IC (TGI) [5]: 675 nM | GI50 [6]: 317 nM | CC50 [6]: 935 nM | IC (TGI) [6]: 545 nM | GI50 [7]: 1540 nM | CC50 [7]: 6150 nM | IC (TGI) [7]: 3080 nM | GI50 [8]: 295 nM | CC50 [8]: 1020 nM | IC (TGI) [8]: 549 nM | GI50 [9]: 194 nM | CC50 [9]: 1070 nM | IC (TGI) [9]: 457 nM | GI50 [10]: 338 nM | CC50 [10]: 796 nM | IC (TGI) [10]: 518 nM | GI50 [11]: 616 nM | CC50 [11]: 4500 nM | IC (TGI) [11]: 1380 nM | GI50 [12]: 272 nM | CC50 [12]: 860 nM | IC (TGI) [12]: 483 nM | GI50 [13]: 381 nM | CC50 [13]: 4180 nM | IC (TGI) [13]: 786 nM | GI50 [14]: 286 nM | CC50 [14]: 1110 nM | IC (TGI) [14]: 564 nM
